The test system of one data set is NRAS^G12A-mutated AML. The format is in vivo. As to conditions: person, trametinib 2 mg/d, hydroxycarbamide 2000 mg daily.
Data set [1] has as its system RAS pathway activated TF-1, Ba/F3 and UT-7 cells. As to the kind of experiment: Trametinib dose-range cytotoxicity in RAS pathway activated cell lines. The data set is classed as cell-based, human; murine. As to conditions: three fold-dilutions dose-range. The method, then: UptiBlue: Cells were seeded in 100 μl of culture medium for 48 hours. […] The UptiBlue viable cell-counting reagent (Interchim, Montluçon, France) was then added for 4 hours and fluorescence was measured with a Typhoon 8600 scanner (GE Healthcare BioSciences, Buc, France).

The structures appear in SMILES notation.

Turning to `NC(=O)NO` [hydroxycarbamide], the “white blood cell count / leukocytosis” value in the data set on NRAS^G12A-mutated AML (second course) was “limited efficacy”. Besides, the toxicity in patient entry with NRAS^G12A-mutated AML is “hematological toxicity”.

In the case of `CC(=O)Nc1cccc(-n2c(=O)n(C3CC3)c(=O)c3c(Nc4ccc(I)cc4F)n(C)c(=O)c(C)c32)c1` [trametinib], in data set [1], the “cytotoxicity in RAS activated cells compared to isogenic control cells” value is reported as “marked enhancement of trametinib cytotoxicity”. In addition, the toxicity in patient result in the data set on NRAS^G12A-mutated AML was “neurological toxicity”.

Values taken from patent US20220288040A1, “USE OF PYRVINIUM FOR THE TREATMENT OF A RAS PATHWAY MUTATED ACUTE MYELOID LEUKEMIA” (INSERM (INSTITUT NATIONAL DE LA SANTÉ ET DE LA RECHERCHE …, priority 2019, published 2022).
